In PMC9266004, “Potential Common Mechanisms of Cytotoxicity Induced by Amide Herbicides via TRPA1 Channel Activation” (International Journal of Environmental Research and Public …, 2022):
Where two headings read alike, the source gives them in different places.

Experiments:
TRPA1-KO A549 cells = assay: CCK-8 cell viability assay in TRPA1-KO A549 cells; type: cell-based, human; details: for IC50: Homo sapiens, TRPA1-KO A549 cells, 24 h treatment, CCK-8, read-out: IC50 values of AHs, TRPA1-KO A549 Cells; for viability of TRPA1-KO A549 cells compared with AHs-treated WT cells: KO of TRPA1, AHs 150, 300, 600 μM
Protocol: (§1) The hTRPA1 gene sequence (Gene ID: 8989) was obtained from the National Center for Biotechnology Information (NCBI) website (https://www.ncbi.nlm.nih.gov/gene/8989 accessed on 26 May 2022). Three gRNA sequences, namely, T1: 5′-[…]-[…], T16: 5′-[…]-3′, and T20: 5′-[…]-3′, were designed using the CRISPR online design tool (http://crispr.mit.edu/ accessed on 26 May 2022). Transfection of cells with gRNA-Cas9 was validated in test cells. Cell pool examination was performed using Sanger sequencing. Sequencing and tracer analysis were performed using the online tool TIDE (https://tide-calculator.nki.nl/ accessed on 26 May 2022) to investigate the cleavage efficiency of T1, T16, and T20. Cells from the cell pool were diluted in 96-well plates. Clones were observed under a microscope and wells containing single cell clones were labeled. Single cell clones were transferred to 24-well plates for expansion. Validation of knockout (KO) clones was performed via sequencing to confirm insertion and deletion on the genomes of KO clone candidates. Furthermore, mycoplasmas were detected for cloned cells with high KO using the Mycoplasma PCR Detection Kit.
(§2) Wild-type (WT) and TRPA1-KO A549 cells were cultured in McCoy’s 5A Media and F-12K Nutrient Mixture containing 10% fetal bovine serum, respectively. WT/TRPA1-KO A549 cells (5 × 10^4 cells/mL) were seeded in 96-well (100 μL/well) and 6-well (2 mL/well) plates and incubated at 37 °C with 5% CO2 in a humidified incubator for 24 h. WT/TRPA1-KO A549 cells were treated with AHs gradient concentrations (0, 150, 300, 600, 1200 μM) prepared in methanol (1.2 M) for 24 h. Additionally, WT/TRPA1-KO A549 cells were pre-treated with TRPA1 special inhibitor HC-030031 (100 μM) for 0.5 h and then treated with AHs gradient concentrations for 24 h.
(§3) To conduct the cell viability assay, the growth medium was removed from WT/TRPA1-KO A549 cells cultured in a 96-well plate. CCK-8 reagent was mixed with complete medium (1:9 volume ratio), and 100 µL of the CCK-8 reagent mixture was added to each well. The plate was incubated for 4 h and the absorbance was measured at 450 nm using a microplate reader (BNR05740; Molecular Devices, Sunnyvale, CA, USA). The average absorbance from each sextuplicate set of wells was calculated and the background control value was subtracted from each absorbance value. The percentage cell viability was determined using the following equation:cell viability (%) = [(As − Ab)/(Ac − Ab)] × 100% where As is the absorbance of the experimental well (containing medium, CCK-8 reagent, cells, and compound); Ac is the absorbance of the control well (containing medium, CCK-8 reagent, and cells); and Ab is the absorbance of the blank well (containing medium and CCK-8 reagent).

TRPA1 mRNA in A549 cells = assay: RT-qPCR of TRPA1 mRNA; type: cell-based, human; details: for TRPA1 mRNA expression with HC-030031 pre-treatment compared with AHs treatment alone: HC-030031 50 μM, AHs 150, 300, 600 μM; for expression of TRPA1 mRNA compared with 0 μM AHs: significant at one or more of 150, 300, 600 μM
Protocol: as §2, with “Additionally, WT/TRPA1-KO A549 cells were pre-treated with TRPA1 special inhibitor HC-030031 (100 μM) for 0.5 h and then treated with AHs gradient concentrations for 24 h.” left out
TRIzol Reagent (1 mL) was directly added to WT/TRPA1-KO A549 cells in 6-well plates and total RNA was extracted according to the manufacturer’s instructions. Total RNA was used for cDNA reverse transcription, which was performed according to the PrimeScript RT protocol with the following reaction conditions: 42 °C for 2 min, 4 °C for ∞ (removal of genomic DNA), 37 °C for 15 min, 85 °C for 5 s, and 4 °C for ∞ (reverse transcriptional reaction). RT-qPCR was performed according to the TB Green Premix Ex Taq II protocol. Primer sequences and product lengths were as follows: hTRPA1 (107 bp) forward primer 5′-[…]-3′, reverse primer 5′-[…]-3′; hβ-actin (184 bp) forward primer 5′-[…]-3′, reverse primer 5′-[…]-3′. RT-qPCR was performed using the CFX96 Real-Time System (Bio-Rad Laboratories, Hercules, CA, USA) using the following reaction conditions: 95 °C for 30 s, 40 cycles of 95 °C for 5 s, 60 °C for 30 s, and 72 °C for 30 s, followed by a melting curve from 65 to 95 °C in 0.5 °C/5 s increments. Calculations were performed using the CFX Manager^TM Version 1.0 software (Bio-Rad Laboratories Ltd., Hercules, CA, USA) and are represented as fold change in expression [2^ΔΔC(t)] on a linear scale.

[1] = system: calcium influx in A549 cells; assay: Cellular calcium imaging (Fluo-4) in WT A549 cells; type: cell-based, human; details: for calcium influx compared with 0 μM AHs: A549 cells, 150, 300, 600, 1200 μM; for calcium influx with HC-030031 pre-treatment compared with AHs treatment alone: A549 cells, HC-030031 50 μM, AHs 150-1200 μM
Protocol: as §2, with “Additionally, WT/TRPA1-KO A549 cells were pre-treated with TRPA1 special inhibitor HC-030031 (100 μM) for 0.5 h and then treated with AHs gradient concentrations for 24 h.” left out
(§4) Working solution was prepared according to the instructions of the Fluo-4 Direct calcium assay kit and directly added to WT/TRPA1-KO A549 cells in 96-well plates, which were incubated for 0.5 h and kept away from light after removal from the incubator. Single channel fluorescein isothiocyanate (FITC) levels were measured using a confocal high-content imaging system (IXM-C S150069, Molecular Devices, San Jose, CA, USA).

[2] = target: hTRPA1 ARD recombinant protein (Homo sapiens, UniProt O75762); assay: LSPR binding analysis (OpenSPR, COOH chip); details: at the analyte concentrations tested (up to 1000-2000 μM)
Sequence of hTRPA1 ARD recombinant protein (O75762 62-609): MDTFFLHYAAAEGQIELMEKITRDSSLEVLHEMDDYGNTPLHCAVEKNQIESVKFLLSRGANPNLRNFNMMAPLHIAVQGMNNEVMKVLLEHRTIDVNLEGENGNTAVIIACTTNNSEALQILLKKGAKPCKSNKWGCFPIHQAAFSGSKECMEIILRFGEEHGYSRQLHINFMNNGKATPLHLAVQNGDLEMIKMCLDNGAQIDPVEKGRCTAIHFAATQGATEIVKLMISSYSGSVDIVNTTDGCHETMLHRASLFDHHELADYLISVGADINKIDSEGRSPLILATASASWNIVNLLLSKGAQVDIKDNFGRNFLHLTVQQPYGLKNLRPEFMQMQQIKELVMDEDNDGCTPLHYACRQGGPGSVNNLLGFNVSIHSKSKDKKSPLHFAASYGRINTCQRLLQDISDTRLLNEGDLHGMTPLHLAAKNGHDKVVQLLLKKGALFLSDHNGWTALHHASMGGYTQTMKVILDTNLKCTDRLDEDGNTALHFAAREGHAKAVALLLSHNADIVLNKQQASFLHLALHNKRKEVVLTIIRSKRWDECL
Protocol: The binding capacity of hTRPA1 ARD recombinant protein and AHs was determined by LSPR according to the OpenSPR (Nicoya Life Sciences, Kitchener, ON, Canada) operating procedure using the COOH chip. After the baseline signal was obtained, the sample was washed with 200 µL 80% isopropyl alcohol for 10 s, and 200 µL ethylcarbodiimide/N-hydroxysuccinimide solution was added. The sample loop was rinsed with phosphate-buffered saline (PBS). hTRPA1 (5 µL) was diluted with PBS, incubated for 4 min, and 200 µL blocking solution was added. […] Contact and dissociation time of analytes and protein were 240 s and 160 s, respectively. TraceDrawer software was applied to determine the association constant (ka), dissociation constant (kd), and affinity constant (KD) using a 1:1 model.

[3] = system: calcium influx in TRPA1-KO A549 cells; assay: Cellular calcium imaging (Fluo-4) in TRPA1-KO A549 cells; type: cell-based, human; details: AHs 150-1200 μM
Protocol: as §1, §2, §4

A549 cells [4] = assay: CCK-8 cell viability assay in WT A549 cells; type: cell-based, human; details: for viability of A549 cells compared with 0 μM AHs: 150, 300, 600, 1200 μM, 24 h; for viability of A549 cells compared with 0 μM AHs / IC50: CCK-8; for viability with HC-030031 pre-treatment compared with AHs treatment alone: A549 cells, HC-030031 50 μM, AHs 150, 300, 600 μM
Protocol: as §2, with “Additionally, WT/TRPA1-KO A549 cells were pre-treated with TRPA1 special inhibitor HC-030031 (100 μM) for 0.5 h and then treated with AHs gradient concentrations for 24 h.” left out
as §3

A549 cells [5] = assay: LDH cytotoxicity assay; type: cell-based, human
Protocol: as §2
Using the Cytotoxicity LDH Assay Kit, lysis buffer (10 μL) was added to the high control well of a 96-well plate containing WT/TRPA1-KO A549 cells, which was then incubated for 0.5 h. Working solution was prepared by adding 5 mL assay buffer to the dye mixture vial, of which 100 μL was added to each well. The plate was protected from light and incubated at room temperature for 0.5 h. Subsequently, 50 μL stop solution was added to each well and the absorbance was measured immediately at 490 nm using a microplate reader (BNR05740, Molecular Devices). The average absorbance was calculated from each sextuplicate set of wells and the background control value was subtracted from each absorbance value. The percentage cytotoxicity was determined using the following equation:cytotoxicity (%) = [(Aa − Ab1)/(Ab2 − Ab1)] × 100% where Aa is the absorbance of the experimental well (containing medium, cells, and compound); Ab2 is the absorbance of the high control well (containing medium, cells, and lysis buffer); and Ab1 is the absorbance of the low control well (containing medium and cells).

[6] = Homo sapiens, WT A549 cells, 24 h treatment, read-out: IC50 values of AHs, A549 Cells
[7] = WT A549 cells pre-treated with HC-030031 50 μM, then AHs 24 h, read-out: IC50 values of AHs, A549 Cells + HC-030031 50 μM

Structure (SMILES)	IC50 (TRPA1-KO A549 cells) [µM]	viability of TRPA1-KO A549 cells compared with AHs-treated WT cells (TRPA1-KO A549 cells)	TRPA1 mRNA expression with HC-030031 pre-treatment compared with AHs treatment alone (TRPA1 mRNA in A549 cells)	expression of TRPA1 mRNA compared with 0 μM AHs (TRPA1 mRNA in A549 cells)	calcium influx compared with 0 μM AHs [1]	calcium influx with HC-030031 pre-treatment compared with AHs treatment alone [1]	binding between hTRPA1 and AHs (LSPR) [2]	calcium influx with KO of TRPA1 compared with AHs-treated WT cells [3]	viability of A549 cells compared with 0 μM AHs (A549 cells [4])	viability with HC-030031 pre-treatment compared with AHs treatment alone (A549 cells [4])	IC50 (A549 cells [4]; [6]) [µM]	IC50 (A549 cells [4]; [7]) [µM]	cell damage (LDH) compared with 0 μM AHs (A549 cells [5]; 150, 300, 600, 1200 μM, 24 h)	cell damage (LDH) compared with 0 μM AHs (A549 cells [5])
CCOCN(C(=O)CCl)c1c(C)cccc1CC [Acetochlor, acetochlor]	696	significantly increased the viability	significantly reduced	significantly increased	significantly increased	significantly decreased calcium influx	Obvious binding was not detected	significantly decreased calcium influx	significantly decreased	significantly increased viability	524	647	–	–
CCc1cccc(C)c1N(COC(C)C)C(=O)CCl [Propisochlor, propisochlor]	1830	significantly increased the viability	albeit not significantly	significantly increased	significantly increased	significantly decreased calcium influx	Obvious binding was not detected	significantly decreased calcium influx	significantly decreased	albeit not significantly	564	1690	significantly increased cell damage	–
CCCCOCN(C(=O)CCl)c1c(CC)cccc1CC [Butachlor, butachlor]	767	significantly increased the viability	significantly reduced	significantly increased	significantly increased	significantly decreased calcium influx	Obvious binding was not detected	significantly decreased calcium influx	significantly decreased	significantly increased viability	619	1760	–	significantly increased cell damage
CCc1cccc(CC)c1N(COC)C(=O)CCl [Alachlor, alachlor]	659	significantly increased the viability	significantly reduced	significantly increased	significantly increased	significantly decreased calcium influx	Obvious binding was not detected	significantly decreased calcium influx	significantly decreased	significantly increased viability	565	731	significantly increased cell damage	–
